Laboratory results as given in US10874687B1 (Atea Pharmaceuticals, Inc., priority 2020, dated 2020).
Several values for one entry are separate records, joined by “and”; a condition that tells them apart may be missing. Equal entries are not always repeated. Where two headings read alike, the source gives them in different places. Marks after values point to notes of the source that are not given here.

Experiments:
SARS-CoV (Urbani) = assay: microbe, parasite or virus in culture; format: cell-based, SARS-CoV-1
SARS-CoV-2 (WA1) = assay: microbe, parasite or virus in culture; format: cell-based
[1] = system: HCoV-229E, HCoV-OC43, SARS-CoV-1 and SARS-CoV-2; assay: organism not typed; format: cell-based, human coronaviruses; conditions: read-out: individual EC90 values
mock infected BHK cells = assay: Cytotoxicity in mock infected BHK-21 cells (MTT); format: cell-based, hamster; conditions: mock infected BHK cells; MTT; 3 days; Table 2B
Method: (§1) To determine the cytotoxicity, cells were seeded at an initial density of 1×10^6 cells/mL in 96 well plates containing Minimum Essential Medium with Earles's salts (MEM-E), L-glutamine, 1 mM sodium pyruvate and 25 mg/L kanamycin, supplemented with 10% fetal bovine serum. Cell cultures were then incubated at 37° C. in a humidified 5% CO2 atmosphere in the absence or presence of serial dilutions of test compounds. Cell viability was determined by the MTT method.
(§2) BHK-21 cells: Test compounds were dissolved in DMSO at 100 mM and then diluted in Minimum Essential Medium with Earle's salts (MEM-E) containing 1 mM sodium pyruvate and 25 μg/mL kanamycin, supplemented with 10% FBS (growth medium) to final concentrations of 100, 20, 4 and 0.8 μM (two 24-well replica plates each). After BHK-21 cells were grown to confluency in 96-well plates, growth medium was replaced with fresh maintenance medium (growth medium with 1% inactivated FBS in place of 10% FBS) containing serially diluted test compound and HCoV-229E at a multiplicity of infection (MOI) of 0.01. Uninfected cells in the presence of serially diluted compound were used to assess the cytotoxicity of compounds. After a 3-day incubation at 37° C. in a humidified 5% CO2 atmosphere, cell viability was determined by the MTT method (Pauwels, R et al. J. Virol. Methods 20(4):309-321 (1988)).

[2] = Cytotoxicity in mock infected BHK-21 cells (MTT); format: cell-based, hamster; conditions: hamster
Method: as §1, §2

HCoV-229E [3] = assay: microbe, parasite or virus in culture; format: cell-based, human coronavirus alpha-229E
[4] = Plasma PK of metabolites in non-human primates after oral Compound 2A; conditions: cynomolgus, cynomolgus monkey, in vivo, 30 mg/kg
HCoV-229E [5] = conditions: HCoV-229E in MRC-5 cells; cited from earlier work
in vitro [6] = conditions: human
Huh-7 cells = conditions: human
MERS-CoV (EMC) = assay: microbe, parasite or virus in culture; format: cell-based
[7] = system: mock infected MES-1 cells; assay: Cytotoxicity in mock infected MES-1 cells (MTT); format: cell-based; conditions: 3 days, Table 3B
Method: as §1

[8] = Cytotoxicity in mock infected MES-1 cells (MTT); format: cell-based; conditions: Table 3A
Method: as §1

HCoV-OC43 [9] = assay: microbe, parasite or virus in culture; format: cell-based, human coronavirus beta-OC43
HCoV-229E [10] = assay: Protection of BHK-21 cells from virus-induced cytopathogenicity (MTT); format: cell-based, human coronavirus; conditions: for EC50: Human coronavirus 229E
Method: (§3) After a 3-day incubation at 37° C. cell viability was determined by the MTT method as described by Pauwels et al. (J. Virol. Methods 1988, 20, 309-321).
In an initial screening, BHK-21 cells acutely infected with a seasonal human alpha coronavirus, HCoV-229E, were exposed to serial dilutions of Compound 1A. […] No toxicity was detected from either drug.
as §2

HCoV-OC43 [11] = assay: microbe, parasite or virus in culture; format: cell-based, human coronavirus beta-OC43; conditions: Betacoronavirus 1, OC43, Huh-7, read-out: VYR EC90
in vitro [12] = conditions: human; remark: listed apart in the source
HCoV = assay: Protection of MES-1 cells from virus-induced cytopathogenicity (MTT); format: cell-based; conditions: unidentified human coronavirus, 72 h, 50% protection of MES-1 cells, day 3 post-infection
Method: as §3

in vitro [13] = conditions: human; remark: listed apart in the source

## CNc1nc(N)nc2c1ncn2[C@@H]1O[C@H](CO[P@@](=O)(N[C@@H](C)C(=O)OC(C)C)Oc2ccccc2)[C@@H](O)[C@@]1(C)F [Compound 1A]
SARS-CoV (Urbani); CC50/EC90, SARS-CoV (Urbani) in Huh7 cells
  Selectivity Index: >250
SARS-CoV (Urbani); Severe acute respiratory syndrome coronavirus, Huh-7, read-out: Virus Yield Reduction Assay EC90
  EC90: 340 nM and 0.2 µg/mL
SARS-CoV-2 (WA1); Severe acute respiratory syndrome coronavirus 2, HAE, read-out: EC90 of the single replicates
  EC90: 570 nM
SARS-CoV-2 (WA1); Severe acute respiratory syndrome coronavirus 2, HAE, read-out: Virus Yield Reduction Assay EC90
  EC90: 470 nM and 0.37 µg/mL
SARS-CoV-2 (WA1); Severe acute respiratory syndrome coronavirus 2, HAE, read-out: average EC90
  EC90: 540 nM
SARS-CoV-2 (WA1); Severe acute respiratory syndrome coronavirus 2, HAE, read-out: replicate EC90 determinations
  EC90: 0.33 µg/mL
SARS-CoV-2 (WA1); read-out: Virus Yield Reduction Assay EC90
  EC90: 510 nM and 640 nM
SARS-CoV-2 (WA1); read-out: average EC90
  EC90: 500 nM and ~550 nM
[1]
  EC90: 340 to 1200 nM
Mock infected BHK cells
  CC50: > 100000 nM
[2]; mock infected BHK-21 cells, mock infected BHK cells, MTT, 3 days, Table 2A
  CC50 at 3 days: > 100000 nM
[2]; uninfected BHK-21 cells, BHK-21, Table 5
  CC50 at 3 days: > 100000 nM
HCoV-229E [3]; HCoV-229E in Huh-7
  Selectivity Index (CC50/EC90): >75
HCoV-229E [3]; Human coronavirus 229E, Huh-7, read-out: Neutral Red Assay EC50
  EC50: 1700 nM
HCoV-229E [3]; Human coronavirus 229E, Huh-7, read-out: Neutral Red EC50
  EC50: 1000 nM
HCoV-229E [3]; Human coronavirus 229E, Huh-7, read-out: VYR EC90
  EC90: 710 nM
HCoV-229E [3]; Human coronavirus 229E, Huh-7, read-out: Virus Yield Reduction Assay EC90
  EC90: 1000 nM
HCoV-229E [3]; Human coronavirus 229E, Huh-7, read-out: Visual EC50
  EC50: 1000 nM
HCoV-229E [3]; read-out: Neutral Red Assay EC50
  EC50: 1600 nM
[4]
  AUC(0-t): 0.44 µM·h
  Cmax: 640 nM
  Tmax: 30 to 60 min
  half-life: 44.4 min
HCoV-229E [5]
  EC50: > 100000 nM
In vitro [6]; Neutral Red Assay CC50
  CC50: > 86000 nM
In vitro [6]; Neutral Red CC50
  CC50: > 50000 nM
In vitro [6]; Visual CC50
  CC50: > 50000 nM
Huh-7 cells
  Neutral Red Assay CC50: >50^ μg/mL
MERS-CoV (EMC); Middle East respiratory syndrome-related coronavirus, Huh-7, read-out: average EC90, MERS-CoV in Huh-7
  EC90: 36000 nM
MERS-CoV (EMC); read-out: average EC90, MERS-CoV in Huh-7
  EC90: 37000 nM
[7]
  CC50: > 100000 nM
[8]
  CC50 at 3 days: > 100000 nM
HCoV-OC43 [9]; Betacoronavirus 1, OC43, RD, read-out: Neutral Red Assay EC50
  EC50: 2800 nM
HCoV-OC43 [9]; Betacoronavirus 1, OC43, RD, read-out: Virus Yield Reduction Assay EC90
  EC90: 2200 nM
HCoV-OC43 [9]; HCoV-OC43 in RD
  Selectivity Index (CC50/EC90): >39
HCoV-229E [10]; CC50/EC50, HCoV-229E in BHK-21
  Selectivity Index: >58^c
HCoV-229E [10]; BHK, 72 h, 50% protection of BHK cells, MTT, day 3 post-infection, Table 2A, read-out: EC50
  EC50: 1600 nM
HCoV-229E [10]; BHK, 72 h, 50% protection of BHK cells, MTT, day 3 post-infection, Table 2B, read-out: EC50
  EC50: 2000 nM
HCoV-229E [10]; BHK-21, HCoV-229E in BHK-21, dye staining, average of 2 experiments, Table 5, read-out: EC50
  EC50: 1800 nM
HCoV-229E [10]; BHK-21, HCoV-229E in BHK-21, the 2 experiments behind the average, read-out: EC50 of the single experiments
  EC50: 1600 nM
HCoV-OC43 [11]
  EC90: 290 nM
In vitro [12]
  CC50: > 50 µg/mL
HCoV; Table 3A
  EC50: 1600 nM
HCoV; Table 3B
  EC50: 2000 nM
In vitro [13]
  CC50: > 86000 nM
